# Patent US20120071539A1, “COMPOUNDS AND METHODS FOR MODULATING THE SILENCING OF A POLYNUCLEOTIDE OF INTEREST” (Emory University, priority 2006, published 2012)
# Where a name gives a salt, the structure may show the parent alone.
# Experiments:
# [1] = tested on: siRNA-mediated mRNA degradation; assay: cell-based reporter screen: human 293 cells stably expressing GFP plus siRNA hairpin against GFP; details: for Modulation Effect (inhibit or enhance siRNA-mediated mRNA degradation): Table 1
# Protocol: FIG. 2 discloses one embodiment of the cell-based reporter system of the invention. In this example, a human 293-cell line stably expressing a reporter gene, GFP, was used. This cell line was further transfected with a construct that expresses siRNA hairpin against GFP, which can decrease the level of GFP expression. Individual clones were isolated with greatly (although not completely) reduced GFP expression.
# Using the above-identified clones, a screen was performed using The Spectrum Collection (MicroSource Discovery Systems, Inc., Gaylordsville, Conn., United States of America), which contains 2000 biologically active and structurally diverse compounds from libraries of known drugs, experimental bioactives, and pure natural products. For example, in one embodiment, a pilot screen of this library identified one inhibitor and one enhancer of siRNA-mediated mRNA degradation.
# To identify the chemical compounds that modulate the siRNA and miRNA pathway, a screening strategy was used. A human 293-cell line stably expressing a reporter gene, GFP, was used. This cell line was further transfected with a construct that expresses siRNA hairpin against GFP, which could knock down the expression of GFP. […] Using these clones, a screen was performed using The Spectrum Collection, which contains 2000 biologically active and structurally diverse compounds from libraries of known drugs, experimental bioactives, and pure natural products.
# Human 293 cells stably expressing a reporter gene, GFP, were further transfected with a construct that expresses an siRNA hairpin against GFP, which results in the knock-down of the expression of GFP. Transfected cells containing the siRNA suppressed GPF expression were split and then treated with an effective amount of enoxacin (FIG. 4, second panel) and were grown for a period of 24-48 hours.
# [2] = tested on: Clone#3, 293-EGFP-siGFP cells; assay: plate-reader chemical library screen, GFP signal in Clone#3 cells; assay type: cell-based, human; details: for Clone#3, 293-EGFP-siGFP cells GFP signal intensity with Drug alone: plate reader
# Excerpt: Further, in some embodiments, additional screens using the same library can be performed to identify other modulators of the siRNA and the miRNA pathways. In some embodiments, instead of examining the GFP signal visually under a microscope, the GFP signal can be quantified using an automatic plate reader. In such embodiments, two additional rounds of screening can be performed. In the first round of screening, the clones can be treated with compounds from a library, e.g., The Spectrum Collection, alone and the GFP level can be quantified after a period of time, e.g., 48 hours. In the second round of screening, the clones can be treated with compounds from a library, e.g., The Spectrum Collection, in the presence of 50 μM RNAi-E, i.e., enoxacin. This assay enables compounds that can modulate the activity of RNAi-E to be identified.
# (§1) The presently disclosed chemical library also was screened using a plate reader to quantify the GFP signal intensity. The following screens were conducted: (1) repeating chemical screen using plate reader to quantify the GFP signal (50 mM each drug); (2) treating cells with 50 mM RNAi-I (30 mM each additional drug); and treating cells with […] (30 mM each additional drug).
# (§2) For each screen, two types of cells were used: Clone#3 and EGFP. Clone#3 cells are 293-EGFP-siGFP and could be used to identify the modulators of the RNAi pathway. EGFP cells are 293-EGFP only and were used as a control to eliminate the compounds that could kill the cells or interfere GFP signals that are not related to RNAi pathway. The results for each screen are summarized in Table 2 and Table 3, respectively.
# (§3) In these three screens, compounds were identified that could either enhance or inhibit RNAi activity in Clone#3, but had no effect on EGFP cells, which would indicate that these compounds might specifically work on RNAi pathway. The modulation of RNAi activity by these compounds was calculated as the percentage of GFP signal to Clone#3 control cells.
# EGFP, 293-EGFP cells = assay: plate-reader chemical library screen, GFP signal in control EGFP cells; assay type: cell-based, human; details: for EGFP, 293-EGFP cells With RNAi-E / EGFP, 293-EGFP cells Drug alone: GFP signal
# Protocol: as §1, §2, §3
# tumor cell models = details: cited from earlier work
# [3] = tested on: shRNA against Luciferase mRNA; assay: GL-3 luciferase reporter in cells expressing shRNA against luciferase; assay type: cell-based; details: FIG. 5
# Excerpt: In this example, a luciferase reporter construct GL-3 was transfected into the cells expressing shRNA against Luciferase mRNA.
# [4] = 50 mM RNAi-E, 30 mM each additional drug
# [5] = 50 mM RNAi-E, 30 mM each additional drug, values given as decimals
# [6] = 50 mM each drug, values given as decimals
Structure (SMILES),Modulation Effect (inhibit or enhance siRNA-mediated mRNA degradation) [1],"Clone#3, 293-EGFP-siGFP cells GFP signal intensity with Drug and RNAi-E [2, 4]","Clone#3, 293-EGFP-siGFP cells GFP signal intensity with Drug alone ([2]; 50 mM each drug)",Effect ([2]; Table 2),Effect ([2]; as listed in Table 3),"EGFP, 293-EGFP cells With RNAi-E (EGFP, 293-EGFP cells; [4])","EGFP, 293-EGFP cells Drug alone (EGFP, 293-EGFP cells; 50 mM each drug)",also measured
C=C1C2CCC3(C)C(c4ccoc4)OC(=O)CC13OC1CC(O)C(C)(C)C(CC(=O)OC)C12C (stereo not drawn) [3-alpha-hydroxy-3-deoxyangolensic acid methyl ester],Enhancer,10902446,10997867,Enhancer,Enhancer,118263232,129330172,–
"CC(=O)O[C@@H]1C[C@H]2C(C)(C)[C@@H](O)CC[C@]2(C)[C@H]2CC[C@]3(C)C(=CC(=O)O[C@H]3c3ccoc3)[C@@]21C [3-beta-Hyroxydeoxo-dihydrodeoxygedunin, 3-beta-hydroxydeoxodihydrodeoxygedunin]",Enhancer,13998738,17430963,Enhancer,Enhancer,186574276,213530556,–
"NC(=S)NN=Cc1ccc(O)cn1 [5-HP, 5-hydroxypyridine-2-carboxaldehyde thiosemicarbazone]",–,–,–,–,–,–,–,anti-proliferative activity (tumor cell models): anti-proliferative activity
CC(C)C[C@H]1C(=O)N2CCC[C@H]2[C@]2(O)O[C@](NC(=O)[C@@H]3C=C4c5cccc6[nH]c(Br)c(c56)C[C@H]4N(C)C3)(C(C)C)C(=O)N12 [Bromocriptine Mesylate],–,10893798,7607590,–,–,136409552,132392840,–
C=C[C@@]1(C)CC(=O)[C@]2(O)[C@@]3(C)[C@@H](O)CCC(C)(C)[C@@H]3[C@H](O)[C@H](OC(C)=O)[C@@]2(C)O1 [Colforsin],Inhibitor,–,–,Inhibitor,Inhibitor,–,–,–
CC(=O)N(O)CCCCCNC(=O)CCC(=O)N(O)CCCCCNC(=O)CCC(=O)N(O)CCCCCN [Deferoxamine Mesylate],–,12987131,15874023.8,–,–,194519648,194929488,–
Cc1cc(=O)c2c(O)c3c(cc2o1)OCC(C)CC3 (stereo not drawn) [Dihydroptaeroxylin],Enhancer,17140237.8,26383349,Enhancer,Enhancer,194786588,215783848,"Clone#3, 293-EGFP-siGFP cells % GFP signal intensity with drug + RNAi-E/Control (no drug) [2, 5]: 59.4446%; Clone#3 293-EGFP-siGFP cells % GFP signal intensity with drug alone/Control (no drug) [2, 6]: 91.5009%; EGFP, 293-EGFP cells Control % (With RNAi-E) (EGFP, 293-EGFP cells; [5]): 95.4836%; EGFP, 293-EGFP cells Control % (Drug alone) (EGFP, 293-EGFP cells; [6]): 105.776%"
O=C(O)CCC(=O)c1ccc(-c2ccccc2)cc1 [Fenbufen],Enhancer,17801864.5,26499027,Enhancer,Enhancer,191729340,204633204,–
CC(=O)O[C@H]1C[C@@]2(C)[C@@H](C[C@@H](O)[C@H]3[C@@]4(C)CC[C@@H](O)[C@@H](C)[C@@H]4CC[C@@]32C)/C1=C(\CCC=C(C)C)C(=O)O [Fusidic Acid],Enhancer,18581363.5,27803206.5,Enhancer,Enhancer,192354884,229560272,–
O=C1CC[C@]23/C=C/C(=O)NCCCCNCCCNC(=O)/C=C/c4ccc(c2c4)O[C@@H]3C1 [Lunarine],Enhancer,11171512,9353700,Enhancer,Enhancer,130354040,131010562,–
COc1cc2c(cc1OC)C(=O)OC2 [Metameconine],Inhibitor,–,–,Inhibitor,Inhibitor,–,–,–
"O=C(NCCN(CCNC(=O)c1cc(S(=O)(=O)O)c2cccnc2c1O)CCNC(=O)c1cc(S(=O)(=O)O)c2cccnc2c1O)c1cc(S(=O)(=O)O)c2cccnc2c1O [OTX, O-trensox]",–,–,–,–,–,–,–,anti-proliferative activity (tumor cell models): anti-proliferative activity
"Cc1ncc(CO)c(C=NNC(=O)c2ccncc2)c1O [P1H, pyridoxal isonicotinoyl hydrazone]",–,–,–,–,–,–,–,anti-proliferative activity (tumor cell models): anti-proliferative activity
Nc1nc2[nH]cnc2c(=S)[nH]1 [Thioguanine],Enhancer,9228044.75,11903224.8,Enhancer,Enhancer,193528220,181033260,–
"NC(=S)NN=Cc1ncccc1N [Triapine, 3-aminopyridine-2-carboxaldehyde thiosemicarbazone]",–,–,–,–,–,–,–,activity against tumor cell models (tumor cell models): has activity against a variety of tumor cell models; anti-proliferative activity (tumor cell models): anti-proliferative activity
Cc1ccc(/C(=C\CN2CCCC2)c2ccccn2)cc1 [Triprolidine Hydrochloride],–,19639902.5,26791778.5,–,–,202110668,202102776,–
O=C(O)c1cn(C2CC2)c2cc(N3CCNCC3)c(F)cc2c1=O [ciprofloxacin],–,–,–,–,–,–,–,knock-down efficiency of shRNA against luciferase mRNA [3]: increased the knock-down efficiency; siRNA-mediated mRNA degradation [3]: enhance siRNA-mediated mRNA degradation
CC(=O)N(O)CCCCCNC(=O)CCC(=O)N(O)CCCCCNC(=O)CCC(=O)N(O)CCCCCN [desferrioxamine],–,–,–,–,–,–,–,"anti-proliferative activity (tumor cell models): anti-proliferative activity; sensitivity of aggressive tumors to Fe chelation therapy (tumor cell models; neuroblastoma (NB) and leukemia, in vitro, in vivo and clinical trials): sensitive"
COc1cc(C(=O)NCc2ccc(OCCN(C)C)cc2)cc(OC)c1OC [trimethobenzamide],–,–,–,–,–,–,–,"siRNA-mediated mRNA degradation and gene knock-down ([1]; pilot screen of The Spectrum Collection, FIG. 3, FIG. 4): inhibit siRNA-mediated mRNA degradation and gene knock-down"
